Measurements taken from article PMC4632759, “Studies on [5,6]-Fused Bicyclic Scaffolds Derivatives as Potent Dual B-Raf^V600E/KDR Inhibitors Using Docking and 3D-QSAR Approaches” (International Journal of Molecular Sciences, 2015).
Like-named read-outs stand apart in the source and are kept apart here.

Legend:
wild-type B-Raf = tested on: wild-type B-Raf; parameters: method as in PMID 22376051, PMID 22763369, PMID 22883026, PMID 23906342; details: cited from earlier work
C-Raf = tested on: C-Raf; parameters: method as in PMID 22376051, PMID 22763369, PMID 22883026, PMID 23906342; details: cited from earlier work
B-Raf^V600E [1] = biological target: T1, B-Raf^V600E (Homo sapiens, UniProt P15056, V600E); parameters: method as in PMID 22376051, PMID 22763369, PMID 22883026, PMID 23906342; details: literature values used as 3D-QSAR data set; read-out: Kinase IC50 B-Raf^V600E; cited from earlier work
T1 sequence (P15056 whole entry V600E): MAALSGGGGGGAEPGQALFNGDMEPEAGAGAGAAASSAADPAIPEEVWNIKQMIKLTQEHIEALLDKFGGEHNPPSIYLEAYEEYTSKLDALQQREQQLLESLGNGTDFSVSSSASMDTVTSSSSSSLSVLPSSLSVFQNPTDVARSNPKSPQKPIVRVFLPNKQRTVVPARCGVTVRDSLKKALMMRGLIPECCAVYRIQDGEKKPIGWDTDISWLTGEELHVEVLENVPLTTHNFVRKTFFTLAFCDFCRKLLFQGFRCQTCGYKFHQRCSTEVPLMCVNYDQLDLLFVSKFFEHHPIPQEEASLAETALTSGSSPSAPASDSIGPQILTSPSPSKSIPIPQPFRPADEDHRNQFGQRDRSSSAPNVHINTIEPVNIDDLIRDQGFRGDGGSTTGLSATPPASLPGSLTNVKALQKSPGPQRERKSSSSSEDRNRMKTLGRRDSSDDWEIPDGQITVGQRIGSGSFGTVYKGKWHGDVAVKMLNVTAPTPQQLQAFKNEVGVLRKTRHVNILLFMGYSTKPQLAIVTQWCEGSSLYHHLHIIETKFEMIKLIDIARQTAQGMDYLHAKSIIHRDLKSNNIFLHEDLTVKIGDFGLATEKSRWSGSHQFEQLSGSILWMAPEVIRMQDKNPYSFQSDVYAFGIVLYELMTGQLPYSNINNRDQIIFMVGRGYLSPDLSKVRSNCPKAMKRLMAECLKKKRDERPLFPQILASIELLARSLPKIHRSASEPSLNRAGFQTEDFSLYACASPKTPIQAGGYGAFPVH

VEGFR2 = VEGFR2 (Homo sapiens, UniProt P35968); parameters: method as in PMID 22376051, PMID 22763369, PMID 22883026, PMID 23906342; details: literature values used as 3D-QSAR data set; read-out: Kinase IC50 VEGFR2; cited from earlier work
Sequence of VEGFR2 (P35968 806-1171): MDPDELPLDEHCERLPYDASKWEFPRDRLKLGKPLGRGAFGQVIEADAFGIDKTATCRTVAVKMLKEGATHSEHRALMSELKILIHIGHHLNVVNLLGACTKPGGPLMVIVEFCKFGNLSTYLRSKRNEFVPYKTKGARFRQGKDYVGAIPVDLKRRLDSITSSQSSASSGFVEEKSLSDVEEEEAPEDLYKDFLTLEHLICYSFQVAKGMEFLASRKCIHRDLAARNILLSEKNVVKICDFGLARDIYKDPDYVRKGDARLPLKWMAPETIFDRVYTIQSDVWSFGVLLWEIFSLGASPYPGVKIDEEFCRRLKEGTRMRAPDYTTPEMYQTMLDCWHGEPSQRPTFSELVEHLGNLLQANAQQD

B-Raf^V600E [2] = biological target: T1, B-Raf^V600E; assay: B-Raf^V600E inhibitory activity of designed new compounds (preliminary pharmacological evaluation); format: biochemical; details: for IC50: preliminary biological tests
Description: (§1) The designed molecules were synthesized and the preliminary pharmacological evaluation would be used to verify the biological activity and our design strategy.

KDR = KDR (Homo sapiens, UniProt P35968); assay: KDR inhibitory activity of designed new compounds (preliminary pharmacological evaluation); format: biochemical; details: for IC50: preliminary biological tests
Sequence of KDR (P35968 20-1356): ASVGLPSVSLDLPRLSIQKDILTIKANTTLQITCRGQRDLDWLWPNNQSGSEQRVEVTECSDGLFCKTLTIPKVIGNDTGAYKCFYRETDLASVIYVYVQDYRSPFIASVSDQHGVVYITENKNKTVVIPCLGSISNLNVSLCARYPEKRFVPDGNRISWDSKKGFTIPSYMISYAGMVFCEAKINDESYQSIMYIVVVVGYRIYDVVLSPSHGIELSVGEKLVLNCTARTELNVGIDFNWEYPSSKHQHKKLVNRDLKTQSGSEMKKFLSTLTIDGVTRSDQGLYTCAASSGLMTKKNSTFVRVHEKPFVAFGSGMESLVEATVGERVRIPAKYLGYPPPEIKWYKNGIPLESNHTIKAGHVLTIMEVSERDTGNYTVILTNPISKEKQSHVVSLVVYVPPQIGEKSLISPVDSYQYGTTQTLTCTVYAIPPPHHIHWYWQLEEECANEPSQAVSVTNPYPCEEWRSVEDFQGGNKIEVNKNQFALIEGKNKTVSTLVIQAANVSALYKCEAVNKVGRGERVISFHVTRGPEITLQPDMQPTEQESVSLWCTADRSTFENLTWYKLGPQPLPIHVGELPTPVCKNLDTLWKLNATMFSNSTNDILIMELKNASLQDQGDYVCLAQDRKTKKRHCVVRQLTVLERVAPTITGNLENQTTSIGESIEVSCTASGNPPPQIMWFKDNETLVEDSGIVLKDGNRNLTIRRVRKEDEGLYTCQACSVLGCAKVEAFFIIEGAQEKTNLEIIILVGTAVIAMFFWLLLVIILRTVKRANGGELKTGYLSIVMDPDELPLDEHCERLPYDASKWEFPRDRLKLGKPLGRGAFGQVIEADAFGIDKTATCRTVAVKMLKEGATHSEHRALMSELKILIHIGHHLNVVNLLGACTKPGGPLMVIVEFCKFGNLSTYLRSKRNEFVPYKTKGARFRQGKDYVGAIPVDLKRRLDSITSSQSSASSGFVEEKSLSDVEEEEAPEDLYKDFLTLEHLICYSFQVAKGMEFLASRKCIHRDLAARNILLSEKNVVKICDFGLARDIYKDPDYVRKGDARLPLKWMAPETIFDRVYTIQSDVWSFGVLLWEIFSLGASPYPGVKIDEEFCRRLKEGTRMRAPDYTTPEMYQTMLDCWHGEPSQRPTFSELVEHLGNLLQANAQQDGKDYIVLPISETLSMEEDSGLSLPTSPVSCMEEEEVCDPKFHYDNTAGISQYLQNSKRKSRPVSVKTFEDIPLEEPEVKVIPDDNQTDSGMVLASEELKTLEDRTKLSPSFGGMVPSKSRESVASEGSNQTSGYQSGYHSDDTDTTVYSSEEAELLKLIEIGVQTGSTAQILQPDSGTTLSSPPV
Description: as §1

Row | Structure (SMILES) | IC50 (wild-type B-Raf) [nM] | IC50 (C-Raf) [nM] | IC50 (B-Raf^V600E [1]) [nM] | IC50 (VEGFR2) [nM] | IC50 (B-Raf^V600E [2]) [µM] | Actual pIC50 KDR (KDR) | IC50 (KDR) [nM] | Actual pIC50 B-Raf (B-Raf^V600E [2])
1 | N#CC1(c2cccc(C(=O)Nc3cc(Oc4ccc5nc(NC(=O)C6CC6)sc5n4)ccc3F)c2Cl)CC1 [Compound 0JA] | 12 | 1.5 | 7 | 2.2 |  |  |  | 
2 | CNC(=O)c1nc2ccc(C(=O)c3cccc(NC(=O)c4cccc(F)c4)c3)cc2[nH]1 [Compound D4] |  |  |  |  | > 5 | 6.05 | 890 | 
3 | CNC(=O)c1nc2ccc(C(=O)c3cccc(NC(=O)c4ccc(Cl)c(Cl)c4)c3)cc2[nH]1 [Compound D5] |  |  |  |  | 0.15 |  | > 5000 | 6.82
4 | CCNC(=O)c1nc2ccc(C(=O)c3cccc(NC(=O)c4cccc(C(F)(F)F)c4)c3)cc2[nH]1 [Compound D6] |  |  |  |  | > 5 | 6.41 | 390 | 
5 | CC(C)NC(=O)c1nc2ccc(C(=O)c3cccc(NC(=O)Nc4cccc(C(F)(F)F)c4)c3)cc2[nH]1 [Compound D7] |  |  |  |  | > 5 |  | 1520 | 
6 | O=C(Nc1cccc(C(=O)c2ccc3nc(C(=O)NC4CC4)[nH]c3c2)c1)Nc1cccc(C(F)(F)F)c1 [Compound D8] |  |  |  |  | > 5 |  | 1320 | 
